Data taken from ChEMBL document CHEMBL3853353, “Identification and optimization of a new series of anti-tubercular quinazolinones” (Bioorg Med Chem Lett, 2016).
pIC50: −log10 of the molar value. In brackets after ≈: the same amount, converted by molar mass. Activity calls are given as the source filed them. The rule behind the calls is not given here.

Key:
[1] = Time at which lung concentration stays above invitro MIC80 in presence of mouse serum in Balb/c mouse infected with Mycobacterium tuberculosis H37Rv at 100 mg/kg, po administered through gavage as lipidic/water formulation; format: ADME, organism-based; conditions: in vivo
[2] = test system: Mycobacterium tuberculosis; experiment: Antimycobacterial activity against Mycobacterium tuberculosis H37Rv infected in Balb/c mouse assessed as bacterial burden in lungs at 100 mg/kg, po administered daily through gavage starting on day 2 post infection for 4 days per week for 2 weeks as vitamin E/water formulation measured on day 12 post infection (reference value: 7.6 log10CFU); format: functional, Lung
[3] = AUC in Balb/c mouse plasma infected with Mycobacterium tuberculosis H37Rv at 10 to 100 mg/kg, po administered through gavage as lipidic/water formulation; format: ADME, organism-based
[4] = test system: Mycobacterium tuberculosis; experiment: Antimycobacterial activity against Mycobacterium tuberculosis H37Rv incubated for 5 days in presence of 25% mouse serum by Bactiter-Glo assay; format: functional; conditions: 120 h
[5] = test system: Mycobacterium tuberculosis; experiment: Antimycobacterial activity against Mycobacterium tuberculosis H37Rv incubated for 5 days in presence of 25% human serum by Bactiter-Glo assay; format: functional; conditions: 120 h
Cytochrome P450 3A4 [6] = molecular target: T1, Cytochrome P450 3A4 (Homo sapiens, UniProt P08684); experiment: Inhibition of CYP3A4 in human liver microsomes assessed as 1'-hydroxymidazolam metabolite formation using midazolam as substrate incubated for 10 mins by HPLC-MS method
T1 sequence (P08684 whole entry): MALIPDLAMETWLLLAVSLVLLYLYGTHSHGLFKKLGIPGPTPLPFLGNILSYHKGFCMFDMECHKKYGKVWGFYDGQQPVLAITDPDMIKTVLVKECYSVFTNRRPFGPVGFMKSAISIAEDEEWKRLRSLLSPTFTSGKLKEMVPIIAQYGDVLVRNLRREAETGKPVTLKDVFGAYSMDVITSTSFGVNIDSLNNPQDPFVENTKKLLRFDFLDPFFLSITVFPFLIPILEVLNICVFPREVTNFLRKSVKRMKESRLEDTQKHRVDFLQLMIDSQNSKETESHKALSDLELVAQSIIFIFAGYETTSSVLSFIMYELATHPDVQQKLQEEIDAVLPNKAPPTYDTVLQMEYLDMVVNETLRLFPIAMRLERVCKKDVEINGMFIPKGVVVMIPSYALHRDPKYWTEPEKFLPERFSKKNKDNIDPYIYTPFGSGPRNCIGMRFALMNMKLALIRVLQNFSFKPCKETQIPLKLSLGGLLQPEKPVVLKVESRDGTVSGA

[7] = Protein binding in human plasma at 1 to 10 uM after 4 hrs by LC-MS/MS analysis; format: ADME, cell-free; conditions: read-out: PPB (converted)
[8] = test system: Mycobacterium tuberculosis; experiment: Ratio of MIC80 for Mycobacterium tuberculosis H37Rv in presence of 25% human serum to MIC80 for Mycobacterium tuberculosis H37Rv; format: functional
[9] = test system: Mycobacterium tuberculosis; experiment: Antimycobacterial activity against Mycobacterium tuberculosis H37Rv infected in Balb/c mouse assessed as bacterial burden in lungs at 600 mg/kg, po administered daily through gavage starting on day 2 post infection for 4 days per week for 2 weeks as lipidic/water formulation measured on day 12 post infection (reference value: 7.2 log10CFU); format: functional, Lung
[10] = Time at which plasma concentration stays above invitro MIC80 in presence of mouse serum in Balb/c mouse infected with Mycobacterium tuberculosis H37Rv at 100 mg/kg, po administered through gavage as lipidic/water formulation; format: ADME, organism-based; conditions: in vivo
[11] = test system: Mycobacterium tuberculosis; experiment: Antimycobacterial activity against Mycobacterium tuberculosis H37Rv infected in Balb/c mouse assessed as bacterial burden in lungs at 300 mg/kg, po administered daily through gavage starting on day 2 post infection for 4 days per week for 2 weeks as vitamin E/water formulation measured on day 12 post infection (reference value: 7.6 log10CFU); format: functional, Lung
[12] = Protein binding in Swiss mouse plasma at 1 to 10 uM after 4 hrs by LC-MS/MS analysis; format: ADME, cell-free; conditions: read-out: PPB (converted)
[13] = test system: Mycobacterium tuberculosis; experiment: Antimycobacterial activity against Mycobacterium tuberculosis H37Rv infected in po dosed Balb/c mouse assessed as log10 reduction in CFU in lungs administered daily through gavage starting on day 2 post infection for 4 days per week for 2 weeks as lipidic/water formulation measured on day 12 post infection; format: functional; conditions: read-out: MED
[14] = test system: Mycobacterium tuberculosis; experiment: Antimycobacterial activity against Mycobacterium tuberculosis H37Rv infected in Balb/c mouse assessed as bacterial burden in lungs at 30 mg/kg, po administered daily through gavage starting on day 2 post infection for 4 days per week for 2 weeks as vitamin E/water formulation measured on day 12 post infection (reference value: 7.6 log10CFU); format: functional, Lung
[15] = Permeability in human Caco2 cells; conditions: caco-2
[16] = Aqueous equilibrium solubility of compound in pH 7.4 solution at 20 degC; conditions: aqueous pH 7.4 solution
[17] = Aqueous equilibrium solubility of compound in pH 1 solution at 20 degC; conditions: aqueous pH 1 solution
[18] = test system: Mycobacterium tuberculosis; experiment: Antimycobacterial activity against Mycobacterium tuberculosis H37Rv incubated for 5 days by Bactiter-Glo assay; format: functional; conditions: 120 h
[19] = Cytotoxicity against human HepG2 cells assessed as reduction in cell viability after 40 hrs by Celltiter-Glo assay; conditions: HepG2 cells
Cytochrome P450 3A4 [20] = molecular target: T1, Cytochrome P450 3A4; experiment: Inhibition of CYP3A4 in human liver microsomes assessed as 6-beta-hydroxytestosterone metabolite formation using testosterone as substrate incubated for 30 mins by HPLC-MS method
[21] = Lipophilicity, log P of compound; conditions: octanol/water
[22] = test system: Mycobacterium tuberculosis; experiment: Antimycobacterial activity against GFP-tagged Mycobacterium tuberculosis H37Rv infected in mouse RAW264.7 cells incubated for 4 days by Mask blue/Hoechst/FITC staining based fluorescence microscopic analysis; format: functional; conditions: 96 h
[23] = Bioavailability in Swiss mouse at 3 mg/kg, iv administered as single bolus dose in NMP/Solutol HS15/PBS solution after 24 hrs; format: ADME, organism-based; conditions: in vivo
[24] = Drug metabolism in human liver microsomes assessed as CYP450/FMO-mediated demethylation of methoxy group/hydroxylation of distal aryl ring at 5 uM after 20 mins in presence of NADPH; format: ADME
hERG (KCNH2) = hERG (KCNH2) (Homo sapiens, UniProt Q12809); experiment: Inhibition of human ERG at 10 uM relative to control
Chain of hERG (KCNH2) (Q12809 whole entry): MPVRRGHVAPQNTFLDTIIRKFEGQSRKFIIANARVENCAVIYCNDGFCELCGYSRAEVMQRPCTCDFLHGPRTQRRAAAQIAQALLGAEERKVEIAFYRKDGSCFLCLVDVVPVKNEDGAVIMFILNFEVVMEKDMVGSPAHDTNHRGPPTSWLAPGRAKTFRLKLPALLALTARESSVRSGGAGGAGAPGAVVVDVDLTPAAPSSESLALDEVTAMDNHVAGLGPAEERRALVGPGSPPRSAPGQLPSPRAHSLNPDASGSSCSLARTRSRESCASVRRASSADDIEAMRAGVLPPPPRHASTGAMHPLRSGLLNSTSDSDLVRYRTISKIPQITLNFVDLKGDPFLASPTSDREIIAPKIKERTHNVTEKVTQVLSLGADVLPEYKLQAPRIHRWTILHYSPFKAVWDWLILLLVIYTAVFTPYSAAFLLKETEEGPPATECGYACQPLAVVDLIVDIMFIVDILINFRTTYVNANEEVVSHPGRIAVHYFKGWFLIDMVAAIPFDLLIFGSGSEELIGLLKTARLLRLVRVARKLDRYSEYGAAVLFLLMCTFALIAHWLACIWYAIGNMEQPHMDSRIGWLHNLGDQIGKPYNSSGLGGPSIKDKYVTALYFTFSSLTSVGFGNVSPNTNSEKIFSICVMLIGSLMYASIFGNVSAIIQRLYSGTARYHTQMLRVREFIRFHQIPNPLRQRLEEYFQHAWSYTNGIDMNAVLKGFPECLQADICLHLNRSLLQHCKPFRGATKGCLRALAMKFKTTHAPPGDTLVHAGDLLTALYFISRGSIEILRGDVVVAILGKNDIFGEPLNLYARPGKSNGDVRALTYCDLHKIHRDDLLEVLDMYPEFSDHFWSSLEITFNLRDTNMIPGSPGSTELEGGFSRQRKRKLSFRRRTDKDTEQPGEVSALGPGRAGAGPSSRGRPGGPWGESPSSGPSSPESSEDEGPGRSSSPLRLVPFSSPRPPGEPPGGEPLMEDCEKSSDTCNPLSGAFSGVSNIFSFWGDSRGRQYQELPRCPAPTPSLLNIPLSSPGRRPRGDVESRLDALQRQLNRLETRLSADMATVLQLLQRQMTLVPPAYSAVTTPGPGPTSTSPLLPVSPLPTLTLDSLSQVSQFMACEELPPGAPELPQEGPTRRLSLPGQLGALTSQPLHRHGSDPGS

[25] = test system: Mycobacterium tuberculosis; experiment: Growth inhibition of Mycobacterium tuberculosis H37Rv at 10 uM incubated for 5 days by Bactiter-Glo assay relative to control; format: functional; conditions: 120 h, read-out: GI
[26] = Selectivity index, ratio of IC50 for human HepG2 cells to MIC80 for Mycobacterium tuberculosis H37Rv; format: toxicity, cell-based; conditions: read-out: Selectivity Index
[27] = Drug metabolism in human hepatocytes assessed as demethylation of methoxy group/hydroxylation of distal aryl ring; format: ADME, cell-based, Hepatocyte
[28] = test system: Mycobacterium tuberculosis; experiment: Bacteriostatic activity against Mycobacterium tuberculosis H37Rv incubated for 5 days by Bactiter-Glo assay; format: functional
Salmonella typhimurium = experiment: Genotoxicity in Salmonella typhimurium by Ames test; format: toxicity, organism-based; conditions: salmonella enterica subsp. enterica serovar typhimurium
[29] = test system: Mycobacterium tuberculosis; experiment: Antimycobacterial activity against Mycobacterium tuberculosis H37Rv infected in Balb/c mouse assessed as bacterial burden in lungs at 10 mg/kg, po administered daily through gavage for 2 weeks starting on day 2 post infection as 5% soluplus/acetate buffer formulation measured on day 12 post infection (reference value: 6.4 log10CFU); format: functional, Lung
[30] = AUC in Balb/c mouse plasma infected with Mycobacterium tuberculosis H37Rv at 300 mg/kg, po administered through gavage as 5% soluplus/acetate buffer formulation; format: ADME, organism-based
[31] = test system: Mycobacterium tuberculosis; experiment: Antimycobacterial activity against Mycobacterium tuberculosis H37Rv infected in Balb/c mouse assessed as bacterial burden in lungs at 300 mg/kg, po administered daily through gavage for 2 weeks starting on day 2 post infection as 5% soluplus/acetate buffer formulation measured on day 12 post infection (reference value: 6.4 log10CFU); format: functional, Lung
[32] = test system: Mycobacterium tuberculosis; experiment: Antimycobacterial activity against Mycobacterium tuberculosis H37Rv infected in Balb/c mouse assessed as bacterial burden in lungs at 30 mg/kg, po administered daily through gavage for 2 weeks starting on day 2 post infection as 5% soluplus/acetate buffer formulation measured on day 12 post infection (reference value: 6.4 log10CFU); format: functional, Lung
[33] = test system: Mycobacterium tuberculosis; experiment: Antimycobacterial activity against Mycobacterium tuberculosis H37Rv infected in Balb/c mouse assessed as bacterial burden in lungs at 100 mg/kg, po administered daily through gavage for 2 weeks starting on day 2 post infection as 5% soluplus/acetate buffer formulation measured on day 12 post infection (reference value: 6.4 log10CFU); format: functional, Lung
[34] = AUC in Balb/c mouse lungs infected with Mycobacterium tuberculosis H37Rv at 300 mg/kg, po administered through gavage as 5% soluplus/acetate buffer formulation; format: ADME, organism-based; conditions: lung
[35] = Time at which plasma concentration stays above invitro MIC80 in presence of mouse serum Balb/c mouse infected with Mycobacterium tuberculosis H37Rv at 300 mg/kg, po administered through gavage as 5% soluplus/acetate buffer formulation; format: ADME, organism-based; conditions: in vivo
[36] = test system: Mycobacterium tuberculosis; experiment: Antimycobacterial activity against Mycobacterium tuberculosis H37Rv infected in Balb/c mouse assessed as bacterial burden in lungs at 10 mg/kg, po administered daily through gavage for 2 weeks starting on day 2 post infection measured on day 12 post infection (reference value: 6.4 log10CFU); format: functional, Lung
[37] = test system: Mycobacterium tuberculosis; experiment: Antimycobacterial activity against Mycobacterium tuberculosis H37Rv infected in Balb/c mouse assessed as bacterial burden in lungs at 10 mg/kg, po administered daily through gavage starting on day 2 post infection for 4 days per week for 2 weeks measured on day 12 post infection (reference value: 7.8 log10CFU); format: functional, Lung
[38] = test system: Mycobacterium tuberculosis; experiment: Antimycobacterial activity against Mycobacterium tuberculosis H37Rv infected in po dosed Balb/c mouse assessed as bacterial burden in lungs administered daily through gavage starting on day 2 post infection for 4 days per week for 2 weeks each 4 days dosing followed by 2 days compound washout measured on day 12 post infection (reference value: 8 log10CFU); format: functional, Lung

SMILES	MIC80 [5] [µM]	pIC50 (Cytochrome P450 3A4 [6])	Ratio [8]	permeability [15]	solubility thermodynamic [16] [µg/mL]	solubility thermodynamic [17] [µg/mL]	MIC80 [18] [µM]	IC50 at 40 h [19] [µM]	pIC50 (Cytochrome P450 3A4 [20])	logP [21]	MIC80 [22] [µM]	also measured
Cn1c(NCCc2ccc(Oc3ccc(Cl)cc3)cc2)nc2cc(Cl)ccc2c1=O	1.9	4.85	8	Permeable	< 1	< 1	0.036 (≈ 0.0159 µg/mL)	10.9	4.54	5.66	0.133 (≈ 0.0586 µg/mL)	Time [1]: > 96 h; Activity [2]: 7.1 log10CFU; AUC [3]: 21 µg·h/mL; MIC80 [4]: 0.42 µM; fraction unbound at 4 h [7]: 0.001; Activity [9]: 6.3 log10CFU; Time [10]: > 96 h; Activity [11]: 7 log10CFU; fraction unbound at 4 h [12]: 0.001; minimal effective dose [13]: 600 mg/kg; Activity [14]: 7.5 log10CFU; bioavailability [23]: 90%
Cn1c(NCCc2ccc(-c3ccc(Cl)cn3)cc2)nc2cc(Cl)ccc2c1=O	0.25	< 4.52	30	Permeable	< 1	21 (≈ 49.4 µM)	0.002 (≈ 0.000851 µg/mL)	> 30	5.08	5.04	0.063 (≈ 0.0268 µg/mL)	–
COc1ccc(CCNc2nc3cc(Cl)ccc3c(=O)n2C)cc1	0.43	> 6.00	>10	Permeable	≤ 1	11 (≈ 32 µM)	0.038 (≈ 0.0131 µg/mL)	13.4	5.37	4.08	0.163 (≈ 0.056 µg/mL)	MIC80 [4]: 0.013 µM; Drug metabolism [24]: Metabolite_Detected; inhibition at 10 µM (hERG (KCNH2)): 35%; inhibition of growth at 10 µM [25]: > 50%; selectivity ratio [26]: > 10; Drug metabolism [27]: Metabolite_Detected; Activity [28]: Active; Activity (Salmonella typhimurium): Non-Toxic
Cn1c(NCCc2ccc(-c3ccc(F)cc3)cc2)nc2cc(Cl)ccc2c1=O.O=S(=O)(O)O	–	–	–	–	–	–	–	–	–	–	–	Activity [29]: 6.6 log10CFU; AUC [30]: 140 µg·h/mL; Activity [31]: 4.9 log10CFU; Activity [32]: 5.8 log10CFU; Activity [33]: 5.5 log10CFU; AUC [34]: 980 µg·h/mL; Time [35]: > 24 h
CO[C@H]1/C=C/O[C@@]2(C)Oc3c(C)c(O)c4c(O)c(c(/C=N/N5CCN(C)CC5)c(O)c4c3C2=O)NC(=O)/C(C)=C\C=C\[C@H](C)[C@H](O)[C@@H](C)[C@@H](O)[C@@H](C)[C@H](OC(C)=O)[C@@H]1C [RIFAMPIN]	–	–	–	–	–	–	–	–	–	–	–	Activity [36]: 3.9 log10CFU; Activity [37]: 5.2
Cn1c(NCCc2ccc(-c3ccccc3)cc2)nc2cc(Cl)ccc2c1=O	0.87	< 4.52	8	Permeable	< 1	5 (≈ 12.8 µM)	0.008 (≈ 0.00312 µg/mL)	6.5	< 4.52	5.27	0.164 (≈ 0.0639 µg/mL)	–
Cn1c(NCCc2ccc(-c3ncc(F)cn3)cc2)nc2cc(Cl)ccc2c1=O	0.39	< 4.52	30	Permeable	< 1	11 (≈ 26.8 µM)	0.003 (≈ 0.00123 µg/mL)	> 30	5.00	4.46	0.013 (≈ 0.00533 µg/mL)	–
Cn1c(NCCc2ccc(-c3ncc(Cl)cn3)cc2)nc2cc(Cl)ccc2c1=O	0.11	–	–	Permeable	< 1	10 (≈ 23.5 µM)	0.006 (≈ 0.00256 µg/mL)	> 30	–	5.02	0.947 (≈ 0.404 µg/mL)	–
CC[C@@H](CO)NCCN[C@@H](CC)CO [ETHAMBUTOL]	–	–	–	–	–	–	–	–	–	–	–	Activity [38]: 7 log10CFU
